# According to patent US20100317647A1 (priority 2009, published 2010):
# Molecular target: human Cat S (Homo sapiens, UniProt P25774)
# Assay: Cathepsin enzyme inhibition assay (fluorogenic peptide substrate cleavage)
# Type: biochemical
# Settings: human Cat S 1 nM; substrate Z-Val-Val-Arg-AMC 20 μM; pH 6.5; fluorescence over 20 minutes
# Procedure, shortened: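 IC50 values derived from fluorescence increase (ex 360 nm, em 465 nm) monitored for 20 minutes after substrate addition. Enzyme held at 1 nM with 20 μM Z-Val-Val-Arg-AMC, in pH 6.5 potassium phosphate buffer containing DTT, EDTA and Triton X-100.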
# Chain of human Cat S (P25774 115-331): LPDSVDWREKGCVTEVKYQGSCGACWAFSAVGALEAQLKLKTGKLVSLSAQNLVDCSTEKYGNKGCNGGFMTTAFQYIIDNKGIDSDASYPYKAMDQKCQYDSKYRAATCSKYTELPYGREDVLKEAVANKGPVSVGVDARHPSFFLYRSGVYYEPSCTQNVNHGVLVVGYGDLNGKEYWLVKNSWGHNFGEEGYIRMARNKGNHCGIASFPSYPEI
row,Structure (SMILES),IC50 [nM]
1,"N#CCNC(=O)[C@@H]1C[C@H](S(=O)(=O)c2ccccc2Cl)C[C@H]1COc1ccc(Cl)cc1 (single isomer, unassigned) [Example 69]",810
2,"N#CC1(NC(=O)[C@@H]2C[C@@H](S(=O)(=O)c3ccc(F)cc3Cl)C[C@H]2C(=O)N2CC(F)(F)C2)CC1 [Example 119, (1R,2R,4R)-4-(2-Chloro-4-fluoro-benzenesulfonyl)-2-(3,3-difluoro-azetidine-1-carbonyl)-cyclopentanecarboxylic acid (1-cyano-cyclopropyl)-amide]",6.1
3,"CC1CCN(C(=O)[C@@H]2C[C@H](S(=O)(=O)c3ccccc3)C[C@H]2C(=O)NC2(C#N)CC2)CC1 [Example 19, (1R,2R,4R)-4-Benzenesulfonyl-2-(4-methyl-piperidine-1-carbonyl)-cyclopentanecarboxylic acid (1-cyano-cyclopropyl)-amide]",0.5
4,"CN1CCC(C#N)(NC(=O)[C@@H]2C[C@@H](S(=O)(=O)c3ccccc3C(F)(F)F)C[C@H]2OCc2ccc(Cl)cc2)CC1 (racemic) [Example 235, (1R,2R,4R) and (1S,2S,4S)-2-(4-Chloro-benzyloxy)-4-(2-trifluoromethyl-benzenesulfonyl)-cyclopentanecarboxylic acid (4-cyano-1-methyl-piperidin-4-yl)-amide]",7.3
5,"N#CC1(NC(=O)[C@H]2CC[C@H](S(=O)(=O)c3ccc(N4CCC(F)(F)C4)cc3Cl)C2)CC1 (racemic) [Example 96, (1S,3S) and (1R,3R)-3-[2-chloro-4-(3,3-difluoro-pyrrolidin-1-yl)-benzenesulfonyl]-cyclopentanecarboxylic acid (1-cyano-cyclopropyl)-amide]",213
6,"CO[C@@H]1C[C@H](S(=O)(=O)c2ccc(-c3cnn(C)c3)cc2C(F)(F)F)C[C@H]1C(=O)NC1(C#N)CC1 [Example 138, (1R,2R,4R)-2-Methoxy-4-[4-(1-methyl-1H-pyrazol-4-yl)-2-trifluoromethyl-benzenesulfonyl]-cyclopentanecarboxylic acid (1-cyano-cyclopropyl)-amide]",0.4
7,"CO[C@@H]1C[C@H](S(=O)(=O)c2ccc(-c3cc(C)sc3C)cc2C(F)(F)F)C[C@H]1C(=O)NC1(C#N)CC1 (racemic) [Example 87, (1R,2R,4R) and (1S,2S,4S)-4-[4-(2,5-Dimethyl-thiophen-3-yl)-2-trifluoromethyl-benzenesulfonyl]-2-methoxy-cyclopentanecarboxylic acid (1-cyano-cyclopropyl)-amide]",0.2
8,"Cc1noc(C)c1-c1ccc(S(=O)(=O)[C@H]2C[C@@H](OC(C)C)[C@H](C(=O)NC3(C#N)CC3)C2)c(C(F)(F)F)c1 (racemic) [Example 141, (1R,2R,4R) and (1S,2S,4S)-4-[4-(3,5-Dimethyl-isoxazol-4-yl)-2-trifluoromethyl-benzenesulfonyl]-2-isopropoxy-cyclopentanecarboxylic acid (1-cyano-cyclopropyl)-amide]",0.2
9,"CCO[C@@H]1C[C@H](S(=O)(=O)c2ccc(-c3ccnc(C)c3)cc2C(F)(F)F)C[C@H]1C(=O)NC1(C#N)CC1 (racemic) [Example 114, (1R,2R,4R) and (1S,2S,4S)-2-Ethoxy-4-[4-(2-methyl-pyridin-4-yl)-2-trifluoromethyl-benzenesulfonyl]-cyclopentanecarboxylic acid (1-cyano-cyclopropyl)-amide]",0.3
10,"Cc1ccc(C(C)(C)O[C@@H]2C[C@H](S(=O)(=O)c3ccccc3Cl)C[C@H]2C(=O)NC2(C#N)CC2)cc1 (racemic) [Example 245, (1R,2R,4R) and (1S,2S,4S)-4-(2-chlorophenylsulfonyl)-N-(1-cyanocyclopropyl)-2-(2-p-tolylpropan-2-yloxy)cyclopentanecarboxamide]",11.4
11,"N#CC1(NC(=O)[C@@H]2C[C@@H](S(=O)(=O)c3ccccc3Cl)C[C@H]2OCc2c(F)cc(Cl)cc2F)CC1 (racemic) [Example 251, (1R,2R,4R) and (1S,2S,4S)-4-(2-Chloro-benzenesulfonyl)-2-(4-chloro-2,6-difluoro-benzyloxy)-cyclopentanecarboxylic acid (1-cyano-cyclopropyl)-amide]",6.11
